Values after ≈ are worked out from the molar mass of the structure shown. Like-named read-outs stand apart in the source and are kept apart here.
How the values were obtained:
C. albicans = assay: Broth microdilution susceptibility test (CLSI M27-A4), C. albicans; assay type: cell-based; conditions: RPMI 1640, 30 °C, 24–48 h, mean of triplicate; for MIC: read-out: MIC75 C. albicans
Method: (§1) Broth microdilution susceptibility test: The minimum inhibitory concentrations (MIC75) were determined by the broth microdilution method according to the Clinical and Laboratory Standards Institute (CLSI) M27-A4 standard ([CLSI, 2017])). Briefly, a suspension of C. albicans or C. glabrata culture (~0.5–2.5 × 10^3 cells/ml) was resuspended in RPMI 1640 media (Fisher Catalog number 11875093). The resuspended culture was further incubated with 100 μl of two-fold serially diluted test compounds (100–0.8 μM and 1.0 μM to 7 nM) at 30 °C for 24–48 h. Positive and negative control (wells without antifungal agents and wells without yeast) were conducted. Increased optical density (OD) corresponds to the Candida growth and was quantified by comparison with untreated Candida control samples. The MIC75 of test compounds was determined visually and spectrophotometrically (OD600) after 24–48 h. Experiments were run in triplicate, and data was reported as a mean.

C. glabrata = assay: Broth microdilution susceptibility test (CLSI M27-A4), C. glabrata; assay type: cell-based; conditions: RPMI 1640, 30 °C, 24–48 h, mean of triplicate; for MIC: read-out: MIC75 C. glabrata
Method: as §1

human Cyp3A4 = human Cyp3A4 (Homo sapiens, UniProt P08684); conditions: for IC50: read-out: CYP 3A4 IC50, human Cyp3A4 supersomes, 2 μM midazolam, 30 min at 37°C
Chain of human Cyp3A4 (P08684 2-503 limits assumed): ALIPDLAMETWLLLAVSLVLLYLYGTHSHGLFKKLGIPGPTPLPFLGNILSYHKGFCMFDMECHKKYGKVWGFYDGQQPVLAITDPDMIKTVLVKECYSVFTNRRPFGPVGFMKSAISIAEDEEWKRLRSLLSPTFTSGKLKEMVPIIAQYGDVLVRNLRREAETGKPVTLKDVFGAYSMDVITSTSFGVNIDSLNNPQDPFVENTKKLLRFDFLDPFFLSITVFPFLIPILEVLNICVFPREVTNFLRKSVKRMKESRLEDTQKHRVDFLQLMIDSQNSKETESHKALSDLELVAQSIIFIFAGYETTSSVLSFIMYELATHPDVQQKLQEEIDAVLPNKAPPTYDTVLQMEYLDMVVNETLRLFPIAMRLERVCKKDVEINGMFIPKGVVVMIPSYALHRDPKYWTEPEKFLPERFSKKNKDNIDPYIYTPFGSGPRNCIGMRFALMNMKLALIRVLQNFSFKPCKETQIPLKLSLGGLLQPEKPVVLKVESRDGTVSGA

SMILES | MIC (C. albicans) [µM] | MIC (C. glabrata) [µM] | further results
CCCS(=O)(=O)N1CCN(c2ccc(OC[C@@H]3CO[C@@](Cn4ccnc4)(c4ccc(Cl)cc4Cl)O3)cc2)CC1 [Entry 3c] | 0.125 (≈ 0.0744 µg/mL) | 0.5 (≈ 0.298 µg/mL) | IC50 (human Cyp3A4): 0.0756 µM
O=S(=O)(CC(F)F)N1CCN(c2ccc(OC[C@@H]3CO[C@@](Cn4ccnc4)(c4ccc(Cl)cc4Cl)O3)cc2)CC1 [Entry 3l] | 0.062 (≈ 0.0383 µg/mL) | 0.25 (≈ 0.154 µg/mL) | improvement in selectivity (Cyp3A4 versus C. albicans) relative to (±)-Ketoconazole (2) (human Cyp3A4; 3l versus 2): 5 fold; window between Cyp3A4 inhibition and activity against C. albicans (human Cyp3A4; Cyp3A4 IC50 versus C. albicans MIC75): 2.6 fold; IC50 (human Cyp3A4): 0.162 µM
C[C@@H]1[C@H](O)[C@@H](C)/C=C/C=C/C=C/C=C/C=C/C=C/C=C/[C@H](O[C@@H]2O[C@H](C)[C@@H](O)[C@H](N)[C@@H]2O)C[C@@H]2O[C@](O)(C[C@@H](O)C[C@@H](O)[C@H](O)CC[C@@H](O)C[C@@H](O)CC(=O)O[C@H]1C)C[C@H](O)[C@H]2C(=O)O [Amphotericin B, reference compound] | – | – | MIC (C. albicans; Candida albicans): 0.25 µM (≈ 0.231 µg/mL); MIC (C. glabrata; Nakaseomyces glabratus): 0.25 µM (≈ 0.231 µg/mL)
CC(C)S(=O)(=O)N1CCN(c2ccc(OC[C@@H]3CO[C@@](Cn4ccnc4)(c4ccc(Cl)cc4Cl)O3)cc2)CC1 [Entry 3d] | – | – | MIC75 C. albicans (C. albicans): complete loss of in vitro antifungal activity and N.E.; MIC75 C. glabrata (C. glabrata): complete loss of in vitro antifungal activity and N.E.
N#CCS(=O)(=O)N1CCN(c2ccc(OC[C@@H]3CO[C@@](Cn4ccnc4)(c4ccc(Cl)cc4Cl)O3)cc2)CC1 [Entry 3g] | 0.25 (≈ 0.148 µg/mL) | 0.5 (≈ 0.296 µg/mL) | –
CS(=O)(=O)N1CCN(c2ccc(OC[C@@H]3CO[C@@](Cn4ccnc4)(c4ccc(Cl)cc4Cl)O3)cc2)CC1 [Entry 3a] | 0.125 (≈ 0.0709 µg/mL) | – | –
O=S(=O)(CCC(F)(F)F)N1CCN(c2ccc(OC[C@@H]3CO[C@@](Cn4ccnc4)(c4ccc(Cl)cc4Cl)O3)cc2)CC1 [Entry 3k] | 1.6 (≈ 1.04 µg/mL) | – | MIC75 C. glabrata (C. glabrata): no effect and N.E.; IC50 (human Cyp3A4): 0.249 µM
CCS(=O)(=O)N1CCN(c2ccc(OC[C@@H]3CO[C@@](Cn4ccnc4)(c4ccc(Cl)cc4Cl)O3)cc2)CC1 [Entry 3b] | 0.125 (≈ 0.0727 µg/mL) | 0.5 (≈ 0.291 µg/mL) | –
O=S(=O)(CC(F)(F)F)N1CCN(c2ccc(OC[C@@H]3CO[C@@](Cn4ccnc4)(c4ccc(Cl)cc4Cl)O3)cc2)CC1 [Entry 3j] | 1.6 (≈ 1.02 µg/mL) | 0.8 (≈ 0.508 µg/mL) | IC50 (human Cyp3A4): 0.45 µM
CC(=O)N1CCN(c2ccc(OC[C@@H]3CO[C@@](Cn4ccnc4)(c4ccc(Cl)cc4Cl)O3)cc2)CC1 [Entry 4, (2S, 4R)-Ketoconazole, reference compound] | – | – | MIC (C. albicans; Candida albicans): 0.125 µM (≈ 0.0664 µg/mL); MIC (C. glabrata; Nakaseomyces glabratus): 0.5 µM (≈ 0.266 µg/mL)
CC(=O)N1CCN(c2ccc(OC[C@H]3CO[C@](Cn4ccnc4)(c4ccc(Cl)cc4Cl)O3)cc2)CC1 (racemic) [Entry 2, (±)-Ketoconazole, reference compound] | – | 0.5 (≈ 0.266 µg/mL) | MIC (C. albicans; Candida albicans): 0.25 µM (≈ 0.133 µg/mL); MIC (C. glabrata; Nakaseomyces glabratus): 0.25 µM (≈ 0.133 µg/mL)

Continued, in another order:

MIC (C. albicans) [µM] | MIC (C. glabrata) [µM] | SMILES | further results
0.8 (≈ 0.497 µg/mL) | 1.6 (≈ 0.994 µg/mL) | O=S(=O)(N1CCN(c2ccc(OC[C@@H]3CO[C@@](Cn4ccnc4)(c4ccc(Cl)cc4Cl)O3)cc2)CC1)C(F)(F)F [Entry 3i] | –
0.8 (≈ 0.475 µg/mL) | 0.8 (≈ 0.475 µg/mL) | O=S(=O)(C1CC1)N1CCN(c2ccc(OCC3COC(Cn4ccnc4)(c4ccc(Cl)cc4Cl)O3)cc2)CC1 (stereo not shown) [Entry 3e] | –
0.8 (≈ 0.516 µg/mL) | 6.25 (≈ 4.03 µg/mL) | CS(=O)(=O)CS(=O)(=O)N1CCN(c2ccc(OC[C@@H]3CO[C@@](Cn4ccnc4)(c4ccc(Cl)cc4Cl)O3)cc2)CC1 [Entry 3h] | –

Reference: PMC10198183 (Frontiers in drug discovery, 2022)
